From patent EP4588995A1, “IMPROVEMENT OF SOLUBILITY OF CHOLINE CARBOXYLATES IN BASE OILS” (OLEON NV, priority 2024, dated 2025) come the findings set out here.

This data set can be described thus: Resistivity of blends according to standard ASTM D1169. Type of data set: physicochemical. As to the method:
The resistivity ability of blends was evaluated according to the standard ASTM […].

For `CCCCCCCC/C=C\CCCCCCCC(=O)OCC(COC(=O)CCCCCCC/C=C\CCCCCCCC)(COC(=O)CCCCCCC/C=C\CCCCCCCC)COC(=O)CCCCCCC/C=C\CCCCCCCC` [Pentaerythritol tetraoleate], the Resistivity is 12.00 10^10 Ωcm.
